Where two headings read alike, the source gives them in different places. Each block holds one compound with its values, some of them ahead of it. Numbered stars: 1 amine (or outer) side, 2 acyl side, 3 side chain; on linkers, the order of the positions; unused ones are H or OH. Square brackets hold non-standard residues; d marks the D form. Side chains are listed from the residue outwards. Peptide text beside a SMILES is read from it. * marks the point of attachment. C18 diacid = O=C(O)CCCCCCCCCCCCCCCCC(=O)*; γGlu = O=C(O)[C@H](CCC(=O)[*:2])N[*:1]; AEEA = NCCOCCOCC(=O)O; Aib = CC(C)(N)C(=O)O
Legend:
SCTR = SCTR (Homo sapiens, UniProt P47872); assay: hSCTR potency, cAMP accumulation in CHO-K1 cells stably overexpressing hSCTR; type: cell-based; design: alternatively Euroscreen ES-712-AF; FAST-0161L; host or cells: CHO-K1; conditions: read-out: pEC50 hSCTR (converted)
Sequence of SCTR (P47872 23-440): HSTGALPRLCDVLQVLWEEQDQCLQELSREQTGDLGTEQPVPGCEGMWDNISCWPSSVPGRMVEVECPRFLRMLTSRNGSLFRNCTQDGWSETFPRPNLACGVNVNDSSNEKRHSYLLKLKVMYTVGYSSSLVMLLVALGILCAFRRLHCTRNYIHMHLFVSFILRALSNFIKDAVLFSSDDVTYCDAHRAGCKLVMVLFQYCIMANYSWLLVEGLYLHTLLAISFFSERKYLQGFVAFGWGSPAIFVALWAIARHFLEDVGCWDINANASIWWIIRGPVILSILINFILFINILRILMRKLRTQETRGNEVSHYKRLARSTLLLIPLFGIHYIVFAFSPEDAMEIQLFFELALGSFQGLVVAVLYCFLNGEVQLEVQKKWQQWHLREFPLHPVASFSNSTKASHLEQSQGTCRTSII
Excerpt: (§1) Crude library peptides are screened in 10-fold serial dilutions of 5 concentrations, n=1 time. Tip change is done for the first two serial dilutions. Compound starting concentration (top) will be adjusted throughout the study if needed.
(§2) Purified peptides are screened in 3-fold serial dilutions of 11 concentrations, n=2 times. Tip change is done for all serial dilutions. Compound starting concentration (top) will be adjusted throughout the study. If the top concentration is adjusted or a 5-fold difference in calculated EC50 values is observed, n is increased by 1. EC50 values were calculated by nonlinear regression using sigmoid concentration-response with variable slope.
(§3) Frozen division arrested CHO-K1 cells stably overexpressing the hSCTR were obtained from PerkinElmer (ES-712-AF). Alternatively, a CHO-K1 cell line stably overexpressing the hSCTR was obtained from Euroscreen (FAST-0161L), expanded, aliquoted and frozen. An aliquot was thawed and plated in DPBS with 0.05% casein and 0.5 mM IBMX as 2000 cells/well in a 384-well format. The cells were then immediately stimulated for 30 min at room temperature with graded doses of test compound using human secretin (synthesized at Gubra) as a positive control. cAMP accumulation was measured using a Cisbio assay for Gs coupled receptors (cat. no. 62AM4PEC), where the assay reagents were added as per the manufacturer's instructions and time-resolved fluorescence energy transfer recorded after one hour on a CLARIOstar (BMG Labtech) plate reader.

GLP1R = GLP1R (Homo sapiens, UniProt P43220); assay: hGLP1R potency, cAMP accumulation in CHO-K1 cells stably overexpressing hGLP1R; type: cell-based; design: host or cells: CHO-K1; conditions: for Selectivity: SCTR EC50/GLP1R EC50 ratio
Sequence of GLP1R (P43220 24-463): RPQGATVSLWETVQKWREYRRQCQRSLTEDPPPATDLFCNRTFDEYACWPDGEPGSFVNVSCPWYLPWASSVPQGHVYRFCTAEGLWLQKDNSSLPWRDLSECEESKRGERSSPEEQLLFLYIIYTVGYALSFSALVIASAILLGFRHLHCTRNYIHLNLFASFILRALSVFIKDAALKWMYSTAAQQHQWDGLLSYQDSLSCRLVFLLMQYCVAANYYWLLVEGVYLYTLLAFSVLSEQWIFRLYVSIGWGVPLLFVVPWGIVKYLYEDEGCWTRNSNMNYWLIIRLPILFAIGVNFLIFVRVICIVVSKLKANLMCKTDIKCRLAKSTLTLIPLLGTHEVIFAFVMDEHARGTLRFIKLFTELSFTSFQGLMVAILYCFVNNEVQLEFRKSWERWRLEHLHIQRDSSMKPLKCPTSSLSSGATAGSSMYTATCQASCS
Excerpt: as §1, §2
as §3, with “A” for “Frozen division arrested CHO-K1 cells stably overexpressing the hSCTR were obtained from PerkinElmer (ES-712-AF). Alternatively, a”, “hGLP1R” for “hSCTR”, “(FAST-0145L),” for “(FAST-0161L),”, “GLP-1(7-36)” for “secretin”

[1] = Table 4, position X12 variants of GUB06-046
[2] = Table 2, extended 30 amino acid peptides
[3] = Table 3, position X^10 variants of GUB06-046

Compound: CC(C)C[C@H](NC(=O)[C@H](Cc1ccccc1)NC(=O)[C@H](CCCNC(=N)N)NC(=O)[C@H](CCC(N)=O)NC(=O)[C@H](CCC(=O)O)NC(=O)[C@H](C)NC(=O)[C@H](C)NC(=O)CNC(=O)[C@H](CCC(=O)O)NC(=O)[C@H](CCCCNC(=O)COCCOCCNC(=O)COCCOCCNC(=O)CC[C@H](NC(=O)CCCCCCCCCCCCCCCCC(=O)O)C(=O)O)NC(=O)[C@H](CC(C)C)NC(=O)[C@H](CCCNC(=N)N)NC(=O)[C@H](CO)NC(=O)[C@@H](NC(=O)[C@H](CC(=O)O)NC(=O)[C@H](CO)NC(=O)[C@@H](NC(=O)[C@H](Cc1ccccc1)NC(=O)[C@@H](NC(=O)CNC(=O)[C@H](CCC(=O)O)NC(=O)C(C)(C)NC(=O)[C@@H](N)Cc1c[nH]cn1)[C@@H](C)O)[C@@H](C)O)C(C)C)C(=O)N[C@@H](CCC(N)=O)C(=O)N[C@@H](Cc1c[nH]cn1)C(=O)N[C@@H](CC(C)C)C(=O)N[C@H](C(=O)N[C@@H](C)C(=O)N[C@@H](C)C(=O)N[C@@H](CCC(=O)O)C(N)=O)C(C)C [compound 206] (H-H[Aib]EGTFTSDVSRLK([AEEA-AEEA-γGlu-C18 diacid])EGAAEQRFLQHLVAAE-NH2)
EC50 (SCTR; [2]): 5010 nM | Selectivity (GLP1R; [2]): 312500 | EC50 (GLP1R; Table 2, extended 30 amino acid peptides, read-out: PEC50 hGLPR1 (converted)): 0.0158 nM

Compound: CC[C@H](C)[C@H](NC(=O)[C@H](Cc1ccccc1)NC(=O)[C@H](CCCNC(=N)N)NC(=O)[C@H](CCC(N)=O)NC(=O)[C@H](CC(C)C)NC(=O)[C@H](C)NC(=O)[C@H](C)NC(=O)CNC(=O)[C@H](CCC(=O)O)NC(=O)[C@H](CC(C)C)NC(=O)[C@H](CC(C)C)NC(=O)[C@H](CCCNC(=N)N)NC(=O)[C@H](CO)NC(=O)[C@@H](NC(=O)[C@H](CC(=O)O)NC(=O)[C@H](CO)NC(=O)[C@@H](NC(=O)[C@H](Cc1ccccc1)NC(=O)[C@@H](NC(=O)CNC(=O)[C@H](CCC(=O)O)NC(=O)C(C)(C)NC(=O)[C@@H](N)Cc1c[nH]cn1)[C@@H](C)O)[C@@H](C)O)[C@@H](C)CC)C(=O)N[C@@H](CCC(N)=O)C(=O)N[C@@H](Cc1c[nH]c2ccccc12)C(=O)N[C@@H](CC(C)C)C(=O)N[C@H](C(N)=O)C(C)C [compound 218] (H-H[Aib]EGTFTSDISRLLEGAALQRFIQWLV-NH2)
Selectivity (GLP1R; [3]): 459

Compound: CC[C@H](C)[C@H](NC(=O)[C@H](Cc1ccccc1)NC(=O)[C@H](CCCNC(=N)N)NC(=O)[C@H](CCC(N)=O)NC(=O)[C@H](CC(C)C)NC(=O)[C@H](C)NC(=O)[C@H](C)NC(=O)CNC(=O)[C@H](CCC(=O)O)NC(=O)[C@H](CC(C)C)NC(=O)[C@H](CC(C)C)NC(=O)[C@H](CCCNC(=N)N)NC(=O)[C@H](CO)NC(=O)[C@H](Cc1ccc(O)cc1)NC(=O)[C@H](CC(=O)O)NC(=O)[C@H](CO)NC(=O)[C@@H](NC(=O)[C@H](Cc1ccccc1)NC(=O)[C@@H](NC(=O)CNC(=O)[C@H](CCC(=O)O)NC(=O)C(C)(C)NC(=O)[C@@H](N)Cc1c[nH]cn1)[C@@H](C)O)[C@@H](C)O)C(=O)N[C@@H](CCC(N)=O)C(=O)N[C@@H](Cc1c[nH]c2ccccc12)C(=O)N[C@@H](CC(C)C)C(=O)N[C@H](C(N)=O)C(C)C [compound 217] (H-H[Aib]EGTFTSDYSRLLEGAALQRFIQWLV-NH2)
Selectivity (GLP1R; [3]): 114

Compound: CC[C@H](C)[C@H](NC(=O)[C@H](Cc1ccccc1)NC(=O)[C@H](CCCNC(=N)N)NC(=O)[C@H](CCC(N)=O)NC(=O)[C@H](CC(C)C)NC(=O)[C@H](C)NC(=O)[C@H](C)NC(=O)CNC(=O)[C@H](CCC(=O)O)NC(=O)[C@H](CC(C)C)NC(=O)[C@H](CC(C)C)NC(=O)[C@H](CCCNC(=N)N)NC(=O)[C@H](CO)NC(=O)[C@H](Cc1c[nH]c2ccccc12)NC(=O)[C@H](CC(=O)O)NC(=O)[C@H](CO)NC(=O)[C@@H](NC(=O)[C@H](Cc1ccccc1)NC(=O)[C@@H](NC(=O)CNC(=O)[C@H](CCC(=O)O)NC(=O)C(C)(C)NC(=O)[C@@H](N)Cc1c[nH]cn1)[C@@H](C)O)[C@@H](C)O)C(=O)N[C@@H](CCC(N)=O)C(=O)N[C@@H](Cc1c[nH]c2ccccc12)C(=O)N[C@@H](CC(C)C)C(=O)N[C@H](C(N)=O)C(C)C [compound 219] (H-H[Aib]EGTFTSDWSRLLEGAALQRFIQWLV-NH2)
Selectivity (GLP1R; [3]): 478

Second part, the compound after the results:

EC50 (SCTR; [1]): 1.58 nM | Selectivity (GLP1R; [1]): 120 | EC50 (GLP1R; Table 4, position X12 variants of GUB06-046, read-out: pEC50 hGLPR1 (converted)): 0.0126 nM
Compound: CC[C@H](C)[C@H](NC(=O)[C@H](Cc1ccccc1)NC(=O)[C@H](CCCNC(=N)N)NC(=O)[C@H](CCC(N)=O)NC(=O)[C@H](CC(C)C)NC(=O)[C@H](C)NC(=O)[C@H](C)NC(=O)CNC(=O)[C@H](CCC(=O)O)NC(=O)[C@H](CC(C)C)NC(=O)[C@H](CC(C)C)NC(=O)[C@H](CCC(=O)O)NC(=O)[C@H](CO)NC(=O)[C@H](CC(C)C)NC(=O)[C@H](CC(=O)O)NC(=O)[C@H](CO)NC(=O)[C@@H](NC(=O)[C@H](Cc1ccccc1)NC(=O)[C@@H](NC(=O)CNC(=O)[C@H](CCC(=O)O)NC(=O)C(C)(C)NC(=O)[C@@H](N)Cc1c[nH]cn1)[C@@H](C)O)[C@@H](C)O)C(=O)N[C@@H](CCC(N)=O)C(=O)N[C@@H](Cc1c[nH]c2ccccc12)C(=O)N[C@@H](CC(C)C)C(=O)N[C@H](C(N)=O)C(C)C [compound 224] (H-H[Aib]EGTFTSDLSELLEGAALQRFIQWLV-NH2)

Selectivity (GLP1R; [3]): 891
Compound: CC[C@H](C)[C@H](NC(=O)[C@H](Cc1ccccc1)NC(=O)[C@H](CCCNC(=N)N)NC(=O)[C@H](CCC(N)=O)NC(=O)[C@H](CC(C)C)NC(=O)[C@H](C)NC(=O)[C@H](C)NC(=O)CNC(=O)[C@H](CCC(=O)O)NC(=O)[C@H](CC(C)C)NC(=O)[C@H](CC(C)C)NC(=O)[C@H](CCCNC(=N)N)NC(=O)[C@H](CO)NC(=O)[C@@H](NC(=O)[C@H](CC(=O)O)NC(=O)[C@H](CO)NC(=O)[C@@H](NC(=O)[C@H](Cc1ccccc1)NC(=O)[C@@H](NC(=O)CNC(=O)[C@H](CCC(=O)O)NC(=O)C(C)(C)NC(=O)[C@@H](N)Cc1c[nH]cn1)[C@@H](C)O)[C@@H](C)O)C(C)C)C(=O)N[C@@H](CCC(N)=O)C(=O)N[C@@H](Cc1c[nH]c2ccccc12)C(=O)N[C@@H](CC(C)C)C(=O)N[C@H](C(N)=O)C(C)C [compound 220] (H-H[Aib]EGTFTSDVSRLLEGAALQRFIQWLV-NH2)

Selectivity (GLP1R; [3]): 2086
Compound: CC[C@H](C)[C@H](NC(=O)[C@H](Cc1ccccc1)NC(=O)[C@H](CCCNC(=N)N)NC(=O)[C@H](CCC(N)=O)NC(=O)[C@H](CC(C)C)NC(=O)[C@H](C)NC(=O)[C@H](C)NC(=O)CNC(=O)[C@H](CCC(=O)O)NC(=O)[C@H](CC(C)C)NC(=O)[C@H](CC(C)C)NC(=O)[C@H](CCCNC(=N)N)NC(=O)[C@H](CO)NC(=O)[C@@H]1CCCN1C(=O)[C@H](CC(=O)O)NC(=O)[C@H](CO)NC(=O)[C@@H](NC(=O)[C@H](Cc1ccccc1)NC(=O)[C@@H](NC(=O)CNC(=O)[C@H](CCC(=O)O)NC(=O)C(C)(C)NC(=O)[C@@H](N)Cc1c[nH]cn1)[C@@H](C)O)[C@@H](C)O)C(=O)N[C@@H](CCC(N)=O)C(=O)N[C@@H](Cc1c[nH]c2ccccc12)C(=O)N[C@@H](CC(C)C)C(=O)N[C@H](C(N)=O)C(C)C [compound 221] (H-H[Aib]EGTFTSDPSRLLEGAALQRFIQWLV-NH2)

Source: patent US20260201008A1, “SECRETIN-DERIVED GLP1R SELECTIVE AGONISTS” (GUBRA A/S, priority 2023, published 2026)
